From patent US20090143416A1, “Method of Inducing Tolerance of Plants Against Bacterioses” (priority 2006, published 2009)

Assays:
Erwinia carotovora = experiment: Preventive action on potatoes against Erwinia carotovora (field trial); type: in vivo; conditions: under the trial conditions (potato field trial); assumed, not tested alone
Text: (§1) The visually determined percentages of infected leaf areas were converted into efficacies in % of the untreated control:
(§2) An efficacy of 0 means that the infection level of the treated plants corresponds to that of the untreated control plants; an efficacy of 100 means that the treated plants were not infected.

Xathomonas ssp = experiment: Preventive action on tomatoes against Xathomonas ssp (field trial); type: in vivo; conditions: under the trial conditions (tomato field trial); assumed, not tested alone
Experimental: The active compounds used were applied as commercially available formulations.
as §1
The efficacy (E) is calculated as follows using Abbot's formula: […]
α corresponds to the fungal infection of the treated plants in % and β corresponds to the fungal infection of the untreated (control) plants in %
as §2
The trial was conducted under field conditions. Tomato plants of variety Carmen at a height of app. 10 cm were planted and grown under standard conditions with adequate supply of water and nutrients. After 18 days a first application of active compounds was made, which was repeated five times every 5 to 8 days. No other compounds were applied for pathogen control. Infection with pathogens occurred. Each treatment consisted of four replicants in a randomized block design. The disease incidences were evaluated 46 days after the first application (Xathomonas ssp.).

[Cl-].[Cu+2].[Cu+2].[OH-].[OH-].[OH-] [copper, copper oxychloride]
efficacy against Erwinia carotovora (Erwinia carotovora): very close to zero
efficacy against Xathomonas (Xathomonas ssp): very close to zero
